In ChEMBL document CHEMBL3045551, “Synthesis and Acaricidal Activity of N-(1,3,4-Thiadiazol-2-yl)cyclopropanecarboxamides” (2003):

How the values were obtained:
Assay type in all cases: functional
Tetranychus urticae [1] = assay: Acaricidal activity against Tetranychus urticae (two-spotted spider mite) assessed as mite mortality at 500 ppm relative to untreated control
Tetranychus urticae [2] = assay: Acaricidal activity against Tetranychus urticae (two-spotted spider mite) assessed as mite mortality at 12.5 ppm relative to untreated control
Tetranychus urticae [3] = assay: Acaricidal activity against Tetranychus urticae (two-spotted spider mite) assessed as mite mortality at 200 ppm relative to untreated control
Tetranychus urticae [4] = assay: Acaricidal activity against Tetranychus urticae (two-spotted spider mite) assessed as mite mortality at 50 ppm relative to untreated control

Cc1nnc(NC(=O)C2(C)CC2(Cl)Cl)s1 (stereo unspecified)
mortality at 500 ppm (Tetranychus urticae [1]): 0%

O=C(Nc1nnc(C(F)(F)F)s1)C1CC1(Cl)Cl (stereo unspecified)
mortality at 500 ppm (Tetranychus urticae [1]): 0%

CC1(C(=O)Nc2nnc(C(F)(F)F)s2)CC1
mortality at 500 ppm (Tetranychus urticae [1]): 0%

CC1(C(=O)Nc2nnc(C(F)(F)C(F)(F)F)s2)CC1(Cl)Cl (stereo unspecified)
mortality at 12.5 ppm (Tetranychus urticae [2]): 30% | mortality at 200 ppm (Tetranychus urticae [3]): 100% | mortality at 500 ppm (Tetranychus urticae [1]): 100% | mortality at 50 ppm (Tetranychus urticae [4]): 100%

CC1(C(=O)Nc2nnc(C(F)(F)C(F)(F)C(F)(F)F)s2)CC1(Cl)Cl (stereo unspecified)
mortality at 12.5 ppm (Tetranychus urticae [2]): 80% | mortality at 200 ppm (Tetranychus urticae [3]): 100% | mortality at 500 ppm (Tetranychus urticae [1]): 100% | mortality at 50 ppm (Tetranychus urticae [4]): 100%

CCCCC1(C(=O)Nc2nnc(C(F)(F)F)s2)CC1(Cl)Cl (stereo unspecified)
mortality at 200 ppm (Tetranychus urticae [3]): 30% | mortality at 500 ppm (Tetranychus urticae [1]): 80%

CC1(C(=O)Nc2nnc(C(F)(F)F)s2)CC1(Cl)Cl (stereo unspecified)
mortality at 12.5 ppm (Tetranychus urticae [2]): 30% | mortality at 200 ppm (Tetranychus urticae [3]): 100% | mortality at 500 ppm (Tetranychus urticae [1]): 100% | mortality at 50 ppm (Tetranychus urticae [4]): 100%

CC1(C(=O)Nc2nnc(C(F)(F)F)s2)CC1(Br)Br (stereo unspecified)
mortality at 12.5 ppm (Tetranychus urticae [2]): 0% | mortality at 200 ppm (Tetranychus urticae [3]): 100% | mortality at 500 ppm (Tetranychus urticae [1]): 100% | mortality at 50 ppm (Tetranychus urticae [4]): 30%

CCc1nnc(NC(=O)C2(C)CC2(Cl)Cl)s1 (stereo unspecified)
mortality at 500 ppm (Tetranychus urticae [1]): 0%

CC1(C(=O)Nc2nncs2)CC1(Cl)Cl (stereo unspecified)
mortality at 500 ppm (Tetranychus urticae [1]): 0%

CCC1(C(=O)Nc2nnc(C(F)(F)F)s2)CC1(Cl)Cl (stereo unspecified)
mortality at 12.5 ppm (Tetranychus urticae [2]): 0% | mortality at 200 ppm (Tetranychus urticae [3]): 100% | mortality at 500 ppm (Tetranychus urticae [1]): 100% | mortality at 50 ppm (Tetranychus urticae [4]): 100%

CCCC1(C(=O)Nc2nnc(C(F)(F)F)s2)CC1(Cl)Cl (stereo unspecified)
mortality at 12.5 ppm (Tetranychus urticae [2]): 0% | mortality at 200 ppm (Tetranychus urticae [3]): 100% | mortality at 500 ppm (Tetranychus urticae [1]): 100% | mortality at 50 ppm (Tetranychus urticae [4]): 80%

CC(C)C1(C(=O)Nc2nnc(C(F)(F)F)s2)CC1(Cl)Cl (stereo unspecified)
mortality at 12.5 ppm (Tetranychus urticae [2]): 30% | mortality at 200 ppm (Tetranychus urticae [3]): 80% | mortality at 500 ppm (Tetranychus urticae [1]): 80% | mortality at 50 ppm (Tetranychus urticae [4]): 30%

CC1(C(=O)Nc2nnc(C(F)(F)C(F)(F)C(F)(F)C(F)(F)F)s2)CC1(Cl)Cl (stereo unspecified)
mortality at 500 ppm (Tetranychus urticae [1]): 0%
